Measurements taken from US5602101A, “Antithrombotic agents” (priority 1994, dated 1997).

Experiments:
human thrombin = biological target: T1, human thrombin (Homo sapiens, UniProt P00734); assay: Inhibition of amidase activity of thrombin (chromogenic substrate), Kass; assay type: biochemical; settings: substrate N-benzoyl-Phe-Val-Arg-p-nitroanilide, pH 7.4
T1 construct: purified human thrombin Enzyme Research Laboratories, South Bend, Ind; purchased Enzyme Research Laboratories, South Bend, Ind
Description: (§1) The assay is carried out by mixing 50 μl buffer (0.03M Tris, 0.15M NaCl, pH 7.4), 25 μl of human thrombin solution (purified human thrombin Enzyme Research Laboratories, South Bend, Ind.) at 8 NIH units/ml and 25 μl of test compound in a solvent (50% aqueous methanol (v:v)). Then 150 μl of an aqueous solution of the chromogenic substrate (at 0.25 mg/ml) are added and the rates of hydrolysis of the substrate are measured by monitoring the reactions at 405 nm for the release of p-nitroaniline. Standard curves are constructed by plotting free thrombin concentration against hydrolysis rate. The hydrolysis rates observed with test compounds are then converted to "free thrombin" values in the respective assays by use of the standard curves. The bound thrombin (bound to test compound) is calculated by subtracting the amount of free thrombin observed in each assay from the known initial amount of thrombin used in the assay. The amount of free inhibitor in each assay is calculated by subtracting the number of moles of bound thrombin from the number of moles of added inhibitor (test compound).
The Kass value is the hypothetical equilibrium constant for the reaction between thrombin and the test compound (I). [drawing 53]
(§2) Kass is calculated for a range of concentrations of test compounds and the mean value is reported in units of liter per mole.

factor Xa = biological target: T2, factor Xa (Homo sapiens, UniProt P00742); assay: Serine protease inhibition, factor Xa (chromogenic substrate), Kass; assay type: biochemical; settings: substrate N-Benzoyl-Ile-Glu-Gly-Arg-p-nitroanilide
T2 construct: Human factors X, Xa, IXa, XIa, and xIIa are purchased from Enzyme Research Laboratories; purchased Enzyme Research Laboratories, South Bend, Ind
T2 sequence (P00742 235-488 limits assumed): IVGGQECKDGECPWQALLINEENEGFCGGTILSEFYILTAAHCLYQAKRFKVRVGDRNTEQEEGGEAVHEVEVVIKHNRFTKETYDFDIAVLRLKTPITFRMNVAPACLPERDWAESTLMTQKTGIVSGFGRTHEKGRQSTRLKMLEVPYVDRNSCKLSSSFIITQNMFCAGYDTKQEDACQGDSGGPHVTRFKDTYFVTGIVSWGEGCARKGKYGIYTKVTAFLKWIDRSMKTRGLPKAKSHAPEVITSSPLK
T2 sequence (P00742 41-179 partner limits assumed): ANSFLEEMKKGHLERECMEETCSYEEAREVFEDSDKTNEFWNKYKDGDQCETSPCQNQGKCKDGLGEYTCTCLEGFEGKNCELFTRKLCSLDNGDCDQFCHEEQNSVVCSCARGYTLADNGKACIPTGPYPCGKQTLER
Description: as §1, §2
(§3) By substantially following the procedures described above for human thrombin, and using other human blood coagulation system serine proteases, and using fibrinolytic system serine proteases, with the appropriate chromogenic substrate, identified below, selectivity of the compounds of the present invention with respect to the coagulation factor serine proteases and to the fibrinolytic serine proteases are evaluated as well as their substantial lack of interference with human plasma clot fibrinolysis.
(§4) Human factors X, Xa, IXa, XIa, and xIIa are purchased from Enzyme Research Laboratories, South Bend, Ind.; human urokinase from Leo Pharmaceuticals, Denmark; and recombinant activated Protein C (aPC) is prepared at Eli Lilly and Co. substantially according to U.S. Pat. No. 4,981,952 incorporated by reference herein in its entirety. Chromogenic substrates: N-Benzoyl-Ile-Glu-Gly-Arg-p-nitroanilide (for factor Xa); N-Cbz-D-Arg-Gly-Arg-p-nitroanilide (for factor IXa assay as the factor Xa substrate) pyroglutamyl-Pro-Arg-p-nitroanilide (for factor XIa and for aPC); H-D-Pro-Phe-Arg-p-nitroanilide (for factor XIIa); and pyroglutamyl-Gly-Arg-p-nitroanilide (for urokinase); are purchased from KabiVitrum, Stockholm, Sweden, or from Midwest Biotech, Fishers, Indiana. Bovine trypsin is purchased from Worthington Biochemicals, Freehold, N.J., and human plasma kallikrein from Kabi Vitrum, Stockholm, Sweden. N-Benzoyl-Phe-Val-Arg-p-nitroanilide, the substrate for human thrombin and for trypsin, is synthesized according to procedures described above for the compounds of the present invention, known methods of peptide coupling from commercially available reactants, or was purchased from Midwest Biotech, Fishers, Ind. Human plasmin is purchased from Boehringer Mannheim, Indianapolis, Ind.; nt-PA is purchased as single chain activity reference from American Diagnostics, Greenwich, Conn.; modified-t-PA6 (mt-PA6) is prepared at Eli Lilly and Company by procedure known in the art (See, Burck, et al., J. Biol. Chem., 265, […] (1990). Plasmin chromogenic substrate H-D-Val-Leu-Lys-p-nitroanilide and tissue plasminegen activator (t-PA) substrate H-D-Ile-Pro-Arg-p-nitroanilide are purchased from Kabi Vitrum, Stockholm, Sweden.

Bovine trypsin = biological target: T3, Bovine trypsin (Bos taurus, UniProt P00760); assay: Serine protease inhibition, trypsin (chromogenic substrate), Kass; assay type: biochemical; settings: substrate N-Benzoyl-Phe-Val-Arg-p-nitroanilide
T3 construct: Bovine trypsin is purchased from Worthington Biochemicals, Freehold, N.J; purchased Worthington Biochemicals, Freehold, N.J
T3 sequence (P00760 24-246): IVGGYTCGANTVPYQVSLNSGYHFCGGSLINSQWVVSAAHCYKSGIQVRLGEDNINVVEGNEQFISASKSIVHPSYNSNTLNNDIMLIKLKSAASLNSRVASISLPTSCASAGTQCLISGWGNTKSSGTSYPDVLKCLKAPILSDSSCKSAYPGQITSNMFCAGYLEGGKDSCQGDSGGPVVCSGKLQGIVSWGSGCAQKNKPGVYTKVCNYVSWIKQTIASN
Description: as §1, §2, §3, §4

Human plasmin = biological target: T4, Human plasmin (Homo sapiens, UniProt P00747); assay: Serine protease inhibition, plasmin (chromogenic substrate), Kass; assay type: biochemical; settings: substrate H-D-Val-Leu-Lys-p-nitroanilide
T4 construct: Human plasmin is purchased from Boehringer Mannheim, Indianapolis, Ind; purchased Boehringer Mannheim, Indianapolis, Ind
T4 sequence (P00747 581-810 limits assumed): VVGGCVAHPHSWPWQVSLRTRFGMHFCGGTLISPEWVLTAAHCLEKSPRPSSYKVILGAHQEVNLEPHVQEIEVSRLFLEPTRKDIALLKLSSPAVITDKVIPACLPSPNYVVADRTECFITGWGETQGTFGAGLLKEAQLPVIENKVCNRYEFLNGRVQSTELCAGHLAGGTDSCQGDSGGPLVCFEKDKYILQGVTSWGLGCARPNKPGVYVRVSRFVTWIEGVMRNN
T4 sequence (P00747 97-580 partner limits assumed): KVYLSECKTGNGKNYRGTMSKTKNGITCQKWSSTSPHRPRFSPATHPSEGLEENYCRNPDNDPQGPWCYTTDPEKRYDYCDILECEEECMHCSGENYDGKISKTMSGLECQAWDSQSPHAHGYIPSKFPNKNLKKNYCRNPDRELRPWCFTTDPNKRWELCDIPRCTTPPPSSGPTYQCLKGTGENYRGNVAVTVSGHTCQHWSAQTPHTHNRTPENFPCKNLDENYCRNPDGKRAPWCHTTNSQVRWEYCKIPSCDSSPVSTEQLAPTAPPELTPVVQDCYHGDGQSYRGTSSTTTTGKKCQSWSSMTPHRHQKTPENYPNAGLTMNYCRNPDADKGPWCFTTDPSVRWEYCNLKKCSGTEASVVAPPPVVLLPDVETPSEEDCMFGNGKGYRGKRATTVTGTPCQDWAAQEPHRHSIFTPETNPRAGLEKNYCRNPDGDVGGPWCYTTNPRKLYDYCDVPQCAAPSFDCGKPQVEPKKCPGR
Description: as §1, §2, §3, §4

[1] = biological target: T5, tissue plasminogen activator (t-PA) (Homo sapiens, UniProt P00750); assay: Serine protease inhibition, t-PA (chromogenic substrate), Kass; assay type: biochemical; settings: substrate H-D-Ile-Pro-Arg-p-nitroanilide
T5 construct: purchased American Diagnostics, Greenwich, Conn
T5 sequence (P00750 36-562): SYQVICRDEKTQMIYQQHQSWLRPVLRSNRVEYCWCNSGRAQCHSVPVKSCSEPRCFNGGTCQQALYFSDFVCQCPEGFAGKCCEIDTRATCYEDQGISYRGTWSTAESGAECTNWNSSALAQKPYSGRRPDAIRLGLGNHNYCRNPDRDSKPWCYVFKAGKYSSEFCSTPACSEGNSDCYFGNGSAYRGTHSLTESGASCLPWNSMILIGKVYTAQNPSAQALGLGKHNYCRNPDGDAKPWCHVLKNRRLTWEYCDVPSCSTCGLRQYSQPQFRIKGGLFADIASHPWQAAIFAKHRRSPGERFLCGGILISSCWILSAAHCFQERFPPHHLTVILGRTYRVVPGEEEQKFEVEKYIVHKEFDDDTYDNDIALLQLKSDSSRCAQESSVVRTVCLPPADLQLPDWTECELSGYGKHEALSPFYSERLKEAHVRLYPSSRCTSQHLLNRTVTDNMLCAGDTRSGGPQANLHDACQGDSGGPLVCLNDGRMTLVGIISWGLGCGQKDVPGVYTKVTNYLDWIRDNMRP
Description: as §1, §2, §3, §4

Human Plasma [2] = assay: Anticoagulation in human plasma, thrombin time (TT); assay type: biochemical; settings: concentration required to double the thrombin time
Description: (§5) Dog plasma and rat plasma are obtained from conscious mixed-breed hounds (either sex, Hazelton-LRE, Kalamazoo, Mich., U.S.A.) or from anesthetized male Sprague-Dawley rats (Harlan Sprague-Dawley, Inc., Indianapolis, Ind., U.S.A.) by venipuncture into 3.8 percent citrate. Fibrinogen is prepared from in-date ACD human blood as the fraction I-2 according to previous procedures and specifications. Smith, Biochem. Chem. […] Human fibrinogen is also purchased as 98 percent pure/plasmin free from American Diagnostics, Greenwich, Conn. Coagulation reagents ACTIN, Thromboplastin, and Human plasma are from Baxter Healthcare Corp., Dade Division, Miami, Fla. Bovine thrombin from Parke-Davis (Ann Arbor, Mich.) is used for coagulation assays in plasma. Coagulation assay procedures are as previously described. Smith, et al., Thrombosis Research, 5, 163-174 (1988). A CoAScreener coagulation instrument (American LABor, Inc.) is used for all coagulation assay measurements. The prothrombin time (PT) is measured by adding 0.05 ml saline and 0.05 ml Thromboplastin-C reagent to 0.05 ml test plasma. The activated partial thromboplastin time (APTT) is measured by incubation of 0.05 ml test plasma with 0.05 ml Actin reagent for 120 seconds followed by 0.05 ml CaCl2 (0.02M). […] The compounds of formula I are added to human or animal plasma over a wide range of concentrations to determine prolongation effects on the APTT, PT, and TT assays. Linear extrapolations are performed to estimate the concentrations required to double the clotting time for each assay.

Human Plasma [3] = assay: Anticoagulation in human plasma, activated partial thromboplastin time (APTT); assay type: biochemical; settings: concentration required to double the APTT
Description: as §5

Human Plasma [4] = assay: Anticoagulation in human plasma, prothrombin time (PT); assay type: biochemical; settings: concentration required to double the PT
Description: as §5

[5] = Index of bioavailability (plasma TT AUC, p.o. vs i.v.); settings: rats, adjusted for dose
Description: Male Sprague Dawley rats (350-425 gm, Harlan Sprague Dawley Inc., Indianapolis, Ind.) are anesthetized with xylazine (20 mg/kg, s.c.) and ketamine (120 mg/kg, s.c.) and maintained on a heated water blanket (37° C.). The jugular vein(s) is cannulated to allow for infusions.
Plasma thrombin time (TT) and activated partial thromboplastin time (APTT) are measured with a fibrometer. Blood is sampled from a jugular catheter and collected in syringe containing sodium citrate (3.8%, 1 part to 9 parts blood). To measure TT, rat plasma (0.1 ml) is mixed with saline (0.1 ml) and bovine thrombin (0.1 ml, 30 U/ml in TRIS buffer; Parke Davis) at 37° C. For APTT, plasma (0.1 ml) and APTT solution (0.1 ml, Organon Teknika are incubated for 5 minutes (37° C.) and CaCl2 (0.01 ml, 0,025M) is added to start coagulation. Assays are done in duplicate and averaged.
The time course of the effect of the thrombin inhibitor upon TT is determined after i.v bolus administration to anesthetized rats and after oral treatment of fasted conscious rats. Due to limitations of blood volume and the number of points required to determine the time course from time of treatment to the time when the response returns to pretreatment values, two populations of rats are used. Each sample population represents alternating sequential time points. The average TT over the time course is used to calculate area under the curve (AUC). The index of bioavailability is calculated by the formula shown below and is expressed as percent relative activity.
The area under the curve (AUC) of the plasma TT time course is determined and adjusted for the dose. This index of bioavailability is termed "% Relative Activity" and is calculated as [formula]
Compound solutions are prepared fresh daily in normal saline and are injected as a bolus or are infused starting 15 min before and continuing throughout the experimental perturbation which is 15 minutes in the arteriovenous shunt model and 60 minutes in the FeCl3 model of arterial injury and in the spontaneous thrombolysis model. Bolus injection volume is 1 ml/kg for i.v., and 5 ml/kg for p.o. and infusion volume is 3 ml/hr.

SMILES | Enzyme Kass, Human Thrombin (human thrombin) | Enzyme Kass, Xa (factor Xa) [L/mol × 10^6] | Enzyme Kass, Trypsin (Bovine trypsin) [L/mol × 10^6] | Enzyme Kass, Plasmin (Human plasmin) [L/mol × 10^6] | Enzyme Kass, t-Pa [1] [L/mol × 10^6] | 2 × Clotting time, TT (Human Plasma [2]) [ng/mL] | 2 × Clotting time, APTT (Human Plasma [3]) | 2 × Clotting time, PT (Human Plasma [4]) | Index of Bioavailability, % Relative Activity [5] [%]
Cl.Cn1c(C(=O)NC(Cc2ccccc2)C(=O)N2CCCC2C(=O)NC(C=O)CCCN=C(N)N)cc2ccccc21 [Example 1, NMI-D-Phe-Pro-Arg-H.HCl] | 850 L/mol × 10^6 | 0.51 | 120 | 7.9 | 31 | 43 | 440 ng/mL | 870 ng/mL | 2
Cl.NC(N)=NCCCC(C=O)NC(=O)C1CCCN1C(=O)C(Cc1ccccc1)NC(=O)c1ccc2ccccc2n1 (centres unmarked) [Example 2] | 110 L/mol × 10^6 | 0.16 | 22 | 0.55 | 0.32 | 35 | 1,100 ng/ML | 1,400 ng/ML | 1
Cl.N=C(N)NCCC[C@@H](C=O)NC(=O)[C@@H]1CCCN1C(=O)[C@@H](Cc1ccccc1)NC(=O)c1cccnc1 [Example 3, N-Nicotinoyl-D-Phe-Pro-Arg-H.HCl] | 58 L/mol × 10^6 | 0.080 | 12 | 0.41 | 0.17 | 47 | 1,300 ng/ML | 1,700 ng/ML | 3
CS(=O)(=O)N[C@H](Cc1ccccc1)C(=O)N1CCC[C@H]1C(=O)N[C@H](C=O)CCCNC(=N)N.Cl [Example 7, MeSO2 -D-Phe-Pro-Arg-H.HCl] | 690 L/mol × 10^6 | 2.4 | 220 | 17 | 13 | 21 | 330 ng/mL | 530 ng/mL | 27
CCS(=O)(=O)N[C@H](Cc1ccccc1)C(=O)N1CCC[C@H]1C(=O)N[C@H](C=O)CCCNC(=N)N.Cl [Example 8, EtSO2 -D-Phe-Pro-Arg-H-HCl] | 450 L/mol × 10^6 | 2.6 | 260 | 31 | 2.9 | 9 | 260 ng/mL | 660 ng/mL | 31
CCCS(=O)(=O)N[C@H](Cc1ccccc1)C(=O)N1CCC[C@H]1C(=O)N[C@H](C=O)CCCNC(=N)N.Cl [Example 9, n-Pr-SO2 -D-Phe-Pro-Arg-H.HCl] | 1,700 L/mol × 10^6 | 13 | 480 | 29 | 2.8 | 6 | 220 ng/mL | 510 ng/mL | 14
CCCCS(=O)(=O)N[C@H](Cc1ccccc1)C(=O)N1CCC[C@H]1C(=O)N[C@H](C=O)CCCNC(=N)N.Cl [Example 10, n-Bu-SO2 -D-Phe-Pro-Arg-H.HCl] | 470 L/mol × 10^6 | 8.3 | 230 | 27 | 0.83 | 18 | 300 ng/mL | 700 ng/mL | 18
CCOC(=O)N[C@H](CC1CCCCC1)C(=O)N1CCC[C@H]1C(=O)N[C@H](C=O)CCCN=C(N)N.Cl [Example 34, EtOCO-D-Cha-Pro-Arg-H.HCl] | 360 L/mol × 10^6 | 8.1 | 140 | 26 | 0.75 | 48 | 410 ng/mL | 890 ng/mL | 
